The target of this assay is T1, Short transient receptor potential channel 5 (Homo sapiens, UniProt Q9UL62).
T1 sequence (Q9UL62 whole entry): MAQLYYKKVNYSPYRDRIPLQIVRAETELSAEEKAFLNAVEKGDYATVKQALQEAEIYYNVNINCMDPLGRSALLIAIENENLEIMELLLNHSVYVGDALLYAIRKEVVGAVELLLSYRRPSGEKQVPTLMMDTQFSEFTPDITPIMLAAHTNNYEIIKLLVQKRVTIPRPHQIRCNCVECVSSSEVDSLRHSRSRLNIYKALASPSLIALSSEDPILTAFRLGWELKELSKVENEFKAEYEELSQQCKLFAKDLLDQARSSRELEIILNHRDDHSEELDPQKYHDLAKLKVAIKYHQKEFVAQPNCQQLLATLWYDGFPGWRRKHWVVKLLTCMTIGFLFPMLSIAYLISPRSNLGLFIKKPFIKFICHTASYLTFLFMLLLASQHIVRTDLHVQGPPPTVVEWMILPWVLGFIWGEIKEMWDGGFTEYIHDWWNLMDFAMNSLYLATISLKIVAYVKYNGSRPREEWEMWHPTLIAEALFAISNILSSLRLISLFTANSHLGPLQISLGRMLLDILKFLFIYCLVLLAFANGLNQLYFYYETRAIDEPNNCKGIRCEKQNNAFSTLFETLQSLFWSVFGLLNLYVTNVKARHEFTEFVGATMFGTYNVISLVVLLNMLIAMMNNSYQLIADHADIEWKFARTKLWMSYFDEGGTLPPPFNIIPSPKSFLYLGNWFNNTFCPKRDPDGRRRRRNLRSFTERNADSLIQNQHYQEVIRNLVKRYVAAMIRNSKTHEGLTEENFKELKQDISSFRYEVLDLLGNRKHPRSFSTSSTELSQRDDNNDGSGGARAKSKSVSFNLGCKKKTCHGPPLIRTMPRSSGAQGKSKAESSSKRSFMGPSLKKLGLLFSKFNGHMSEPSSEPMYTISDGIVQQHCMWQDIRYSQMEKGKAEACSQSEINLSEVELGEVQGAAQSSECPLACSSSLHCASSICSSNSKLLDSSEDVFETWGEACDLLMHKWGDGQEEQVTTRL
As to the kind of experiment: Inhibition of human TRPC5 expressed in HEK293-T-REx cells assessed as decrease in riluzole-induced calcium response preincubated for 5 min followed by riluzole stimulation by Fluo-4 AM dye based FLIPR assay. Format: cell-based.

What is called IC50 is the concentration needed to halve the response being measured. Regarding `CN(c1cnccc1C(F)(F)F)c1ncnc2c1CCN(c1cn[nH]c(=O)c1Cl)C2`, the IC50 is ≤ 50 nM.

On to `CCc1c(F)cccc1Oc1ncnc2c1CCN(c1cn[nH]c(=O)c1Cl)C2`, for which the concentration for half-maximal inhibition (IC50) was ≤ 50 nM.

Regarding `O=c1[nH]ncc(N2CCc3c(ncnc3N(CCO)c3ccc(F)cc3C(F)(F)F)C2)c1Cl`, the half-maximal inhibitory concentration (IC50) was ≤ 50 nM.

As for `O=c1[nH]ncc(N2CCc3c(ncnc3Oc3ccccc3C(F)(F)F)C2)c1Cl`, the IC50 is ≤ 50 nM.

Turning to `O=c1[nH]ncc(N2CCc3c(ncnc3Oc3ccc(F)cc3Cl)C2)c1Cl`, the IC50 is ≤ 50 nM.

Source of the values: ChEMBL document CHEMBL4706721, “Novel Pyridazinones as TRPC5 Inhibitors for Treating Kidney Diseases” (ACS Med Chem Lett, 2021).
